Assay results: ChEMBL document CHEMBL3046672, “Synthesis and bioevaluation of Schiff and Mannich bases of isatin derivatives with 4-amino-5-benzyl-2,4-dihydro-3H-1,2,4-triazole-3-thione” (2012)

Legend:
Format in all cases: functional
Details in all cases: read-out: DIZ
Pseudomonas aeruginosa [1] = experiment: Antibacterial activity against Pseudomonas aeruginosa at 50 ug/ml
Pseudomonas aeruginosa [2] = experiment: Antibacterial activity against Pseudomonas aeruginosa at 100 ug/ml
Pseudomonas aeruginosa [3] = experiment: Antibacterial activity against Pseudomonas aeruginosa at 200 ug/ml
Escherichia coli [4] = experiment: Antibacterial activity against Escherichia coli at 50 ug/ml
Escherichia coli [5] = experiment: Antibacterial activity against Escherichia coli at 100 ug/ml
Escherichia coli [6] = experiment: Antibacterial activity against Escherichia coli at 200 ug/ml
Staphylococcus aureus [7] = experiment: Antibacterial activity against Staphylococcus aureus at 200 ug/ml
Staphylococcus aureus [8] = experiment: Antibacterial activity against Staphylococcus aureus at 100 ug/ml
Aspergillus niger [9] = experiment: Antifungal activity against Aspergillus niger at 200 ug/ml
Staphylococcus aureus [10] = experiment: Antibacterial activity against Staphylococcus aureus at 50 ug/ml
Bacillus subtilis [11] = experiment: Antibacterial activity against Bacillus subtilis at 200 ug/ml
Bacillus subtilis [12] = experiment: Antibacterial activity against Bacillus subtilis at 100 ug/ml
Bacillus subtilis [13] = experiment: Antibacterial activity against Bacillus subtilis at 50 ug/ml
Candida albicans [14] = experiment: Antifungal activity against Candida albicans at 200 ug/ml
Candida albicans [15] = experiment: Antifungal activity against Candida albicans at 100 ug/ml
Aspergillus niger [16] = experiment: Antifungal activity against Aspergillus niger at 100 ug/ml

O=C1Nc2ccccc2/C1=N/n1c(Cc2ccccc2)n[nH]c1=S
zone of inhibition at 50 µg/mL (Pseudomonas aeruginosa [1]): 13 mm | zone of inhibition at 100 µg/mL (Pseudomonas aeruginosa [2]): 16 mm | zone of inhibition at 200 µg/mL (Pseudomonas aeruginosa [3]): 24 mm | zone of inhibition at 50 µg/mL (Escherichia coli [4]): 12 mm | zone of inhibition at 100 µg/mL (Escherichia coli [5]): 19 mm | zone of inhibition at 200 µg/mL (Escherichia coli [6]): 23 mm | zone of inhibition at 200 µg/mL (Staphylococcus aureus [7]): 22 mm | zone of inhibition at 100 µg/mL (Staphylococcus aureus [8]): 16 mm | zone of inhibition at 200 µg/mL (Aspergillus niger [9]): 14 mm | zone of inhibition at 50 µg/mL (Staphylococcus aureus [10]): 10 mm | zone of inhibition at 200 µg/mL (Bacillus subtilis [11]): 20 mm | zone of inhibition at 100 µg/mL (Bacillus subtilis [12]): 15 mm | zone of inhibition at 50 µg/mL (Bacillus subtilis [13]): 9 mm | zone of inhibition at 200 µg/mL (Candida albicans [14]): 15 mm | zone of inhibition at 100 µg/mL (Candida albicans [15]): 9 mm | zone of inhibition at 100 µg/mL (Aspergillus niger [16]): 9 mm

O=C1Nc2ccc(Cl)cc2/C1=N/n1c(Cc2ccccc2)n[nH]c1=S
zone of inhibition at 50 µg/mL (Pseudomonas aeruginosa [1]): 9 mm | zone of inhibition at 100 µg/mL (Pseudomonas aeruginosa [2]): 13 mm | zone of inhibition at 200 µg/mL (Pseudomonas aeruginosa [3]): 25 mm | zone of inhibition at 50 µg/mL (Escherichia coli [4]): 11 mm | zone of inhibition at 100 µg/mL (Escherichia coli [5]): 18 mm | zone of inhibition at 200 µg/mL (Escherichia coli [6]): 27 mm | zone of inhibition at 200 µg/mL (Staphylococcus aureus [7]): 23 mm | zone of inhibition at 100 µg/mL (Staphylococcus aureus [8]): 11 mm | zone of inhibition at 200 µg/mL (Aspergillus niger [9]): 12 mm | zone of inhibition at 200 µg/mL (Bacillus subtilis [11]): 20 mm | zone of inhibition at 100 µg/mL (Bacillus subtilis [12]): 14 mm | zone of inhibition at 50 µg/mL (Bacillus subtilis [13]): 9 mm | zone of inhibition at 200 µg/mL (Candida albicans [14]): 16 mm | zone of inhibition at 100 µg/mL (Candida albicans [15]): 9 mm | zone of inhibition at 100 µg/mL (Aspergillus niger [16]): 9 mm

O=C1Nc2ccc(Br)cc2/C1=N/n1c(Cc2ccccc2)n[nH]c1=S
zone of inhibition at 50 µg/mL (Pseudomonas aeruginosa [1]): 10 mm | zone of inhibition at 100 µg/mL (Pseudomonas aeruginosa [2]): 15 mm | zone of inhibition at 200 µg/mL (Pseudomonas aeruginosa [3]): 25 mm | zone of inhibition at 50 µg/mL (Escherichia coli [4]): 11 mm | zone of inhibition at 100 µg/mL (Escherichia coli [5]): 17 mm | zone of inhibition at 200 µg/mL (Escherichia coli [6]): 27 mm | zone of inhibition at 200 µg/mL (Staphylococcus aureus [7]): 20 mm | zone of inhibition at 100 µg/mL (Staphylococcus aureus [8]): 12 mm | zone of inhibition at 200 µg/mL (Aspergillus niger [9]): 14 mm | zone of inhibition at 50 µg/mL (Staphylococcus aureus [10]): 9 mm | zone of inhibition at 200 µg/mL (Bacillus subtilis [11]): 20 mm | zone of inhibition at 100 µg/mL (Bacillus subtilis [12]): 15 mm | zone of inhibition at 50 µg/mL (Bacillus subtilis [13]): 9 mm | zone of inhibition at 200 µg/mL (Candida albicans [14]): 17 mm | zone of inhibition at 100 µg/mL (Candida albicans [15]): 11 mm | zone of inhibition at 100 µg/mL (Aspergillus niger [16]): 10 mm

CCN(CC)CN1C(=O)/C(=N\n2c(Cc3ccccc3)n[nH]c2=S)c2ccccc21
zone of inhibition at 50 µg/mL (Pseudomonas aeruginosa [1]): 9 mm | zone of inhibition at 100 µg/mL (Pseudomonas aeruginosa [2]): 13 mm | zone of inhibition at 200 µg/mL (Pseudomonas aeruginosa [3]): 20 mm | zone of inhibition at 50 µg/mL (Escherichia coli [4]): 9 mm | zone of inhibition at 100 µg/mL (Escherichia coli [5]): 15 mm | zone of inhibition at 200 µg/mL (Escherichia coli [6]): 22 mm | zone of inhibition at 200 µg/mL (Staphylococcus aureus [7]): 23 mm | zone of inhibition at 100 µg/mL (Staphylococcus aureus [8]): 16 mm | zone of inhibition at 200 µg/mL (Aspergillus niger [9]): 13 mm | zone of inhibition at 50 µg/mL (Staphylococcus aureus [10]): 11 mm | zone of inhibition at 200 µg/mL (Bacillus subtilis [11]): 20 mm | zone of inhibition at 100 µg/mL (Bacillus subtilis [12]): 13 mm | zone of inhibition at 50 µg/mL (Bacillus subtilis [13]): 9 mm | zone of inhibition at 200 µg/mL (Candida albicans [14]): 17 mm | zone of inhibition at 100 µg/mL (Candida albicans [15]): 10 mm | zone of inhibition at 100 µg/mL (Aspergillus niger [16]): 9 mm

CCN(CC)CN1C(=O)/C(=N\n2c(Cc3ccccc3)n[nH]c2=S)c2cc(Cl)ccc21
zone of inhibition at 50 µg/mL (Pseudomonas aeruginosa [1]): 9 mm | zone of inhibition at 100 µg/mL (Pseudomonas aeruginosa [2]): 16 mm | zone of inhibition at 200 µg/mL (Pseudomonas aeruginosa [3]): 22 mm | zone of inhibition at 50 µg/mL (Escherichia coli [4]): 11 mm | zone of inhibition at 100 µg/mL (Escherichia coli [5]): 17 mm | zone of inhibition at 200 µg/mL (Escherichia coli [6]): 27 mm | zone of inhibition at 200 µg/mL (Staphylococcus aureus [7]): 21 mm | zone of inhibition at 100 µg/mL (Staphylococcus aureus [8]): 12 mm | zone of inhibition at 200 µg/mL (Aspergillus niger [9]): 12 mm | zone of inhibition at 50 µg/mL (Staphylococcus aureus [10]): 9 mm | zone of inhibition at 200 µg/mL (Bacillus subtilis [11]): 20 mm | zone of inhibition at 100 µg/mL (Bacillus subtilis [12]): 14 mm | zone of inhibition at 50 µg/mL (Bacillus subtilis [13]): 9 mm | zone of inhibition at 200 µg/mL (Candida albicans [14]): 15 mm | zone of inhibition at 100 µg/mL (Candida albicans [15]): 9 mm | zone of inhibition at 100 µg/mL (Aspergillus niger [16]): 9 mm

CCN(CC)CN1C(=O)/C(=N\n2c(Cc3ccccc3)n[nH]c2=S)c2cc(Br)ccc21
zone of inhibition at 50 µg/mL (Pseudomonas aeruginosa [1]): 9 mm | zone of inhibition at 100 µg/mL (Pseudomonas aeruginosa [2]): 14 mm | zone of inhibition at 200 µg/mL (Pseudomonas aeruginosa [3]): 23 mm | zone of inhibition at 50 µg/mL (Escherichia coli [4]): 10 mm | zone of inhibition at 100 µg/mL (Escherichia coli [5]): 16 mm | zone of inhibition at 200 µg/mL (Escherichia coli [6]): 26 mm | zone of inhibition at 200 µg/mL (Staphylococcus aureus [7]): 20 mm | zone of inhibition at 100 µg/mL (Staphylococcus aureus [8]): 14 mm | zone of inhibition at 200 µg/mL (Aspergillus niger [9]): 13 mm | zone of inhibition at 50 µg/mL (Staphylococcus aureus [10]): 9 mm | zone of inhibition at 200 µg/mL (Bacillus subtilis [11]): 20 mm | zone of inhibition at 100 µg/mL (Bacillus subtilis [12]): 13 mm | zone of inhibition at 50 µg/mL (Bacillus subtilis [13]): 9 mm | zone of inhibition at 200 µg/mL (Candida albicans [14]): 16 mm | zone of inhibition at 100 µg/mL (Candida albicans [15]): 10 mm | zone of inhibition at 100 µg/mL (Aspergillus niger [16]): 9 mm

O=C1/C(=N\n2c(Cc3ccccc3)n[nH]c2=S)c2ccccc2N1CN1CCCCC1
zone of inhibition at 50 µg/mL (Pseudomonas aeruginosa [1]): 10 mm | zone of inhibition at 100 µg/mL (Pseudomonas aeruginosa [2]): 16 mm | zone of inhibition at 200 µg/mL (Pseudomonas aeruginosa [3]): 20 mm | zone of inhibition at 50 µg/mL (Escherichia coli [4]): 11 mm | zone of inhibition at 100 µg/mL (Escherichia coli [5]): 18 mm | zone of inhibition at 200 µg/mL (Escherichia coli [6]): 23 mm | zone of inhibition at 200 µg/mL (Staphylococcus aureus [7]): 20 mm | zone of inhibition at 100 µg/mL (Staphylococcus aureus [8]): 14 mm | zone of inhibition at 200 µg/mL (Aspergillus niger [9]): 13 mm | zone of inhibition at 50 µg/mL (Staphylococcus aureus [10]): 9 mm | zone of inhibition at 200 µg/mL (Bacillus subtilis [11]): 20 mm | zone of inhibition at 100 µg/mL (Bacillus subtilis [12]): 12 mm | zone of inhibition at 50 µg/mL (Bacillus subtilis [13]): 9 mm | zone of inhibition at 200 µg/mL (Candida albicans [14]): 16 mm | zone of inhibition at 100 µg/mL (Candida albicans [15]): 10 mm | zone of inhibition at 100 µg/mL (Aspergillus niger [16]): 9 mm
